In the supplement of paper PMC10307832:

What was measured:
Assay in all cases: relative viability (nuclei count vs DMSO), 5 days (fraction); higher = more cells survive
PAC-1 = compound: C=CCc1cccc(/C=N/NC(=O)CN2CCN(Cc3ccccc3)CC2)c1O [PAC-1]
How it was run: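 After an overnight hold at 37 °C, lung cancer cell lines in 1536-well plates were pinned with five library-drug doses (not always all listed), each √10 from the next, on vehicle-anchored plates. The cells stayed 5 days without fresh medium, then a one-step fix, permeabilisation and Hoechst stain preceded 4× imaging and MetaXpress nuclear counts. A plate passed only with control CV under 25% and at least one doubling. Viability is the median, over plates, of treated-well nuclei relative to vehicle-well nuclei.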

Ibrutinib + Alpelisib = compound: C=CC(=O)N1CCC[C@@H](n2nc(-c3ccc(Oc4ccccc4)cc3)c3c(N)ncnc32)C1 [Ibrutinib] + Cc1nc(NC(=O)N2CCC[C@H]2C(N)=O)sc1-c1ccnc(C(C)(C)C(F)(F)F)c1 [Alpelisib] (partner 2 µM)
How it was run: (§1)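 One day after seeding in 1536-well plates, lung cancer cell lines were dosed by pin tool. Dosing was either single-drug or a fixed anchor-drug dose plus five library-drug doses (not always all listed) in √10 steps. After 5 days, nuclei were stained in one fix-and-stain step and counted on 4× images, and relative viability is the nuclei count of treated wells over that of vehicle wells, given as the median of duplicate plates.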

BMX-IN-1 + Trametinib = compound: C=CC(=O)Nc1cc(-n2c(=O)ccc3cnc4ccc(-c5ccc(NS(C)(=O)=O)cc5)cc4c32)ccc1C [BMX-IN-1] + CC(=O)Nc1cccc(-n2c(=O)n(C3CC3)c(=O)c3c(Nc4ccc(I)cc4F)n(C)c(=O)c(C)c32)c1 [Trametinib] (partner 0.02 µM)
How it was run: as §1

BMX-IN-1 + Lapatinib = compound: C=CC(=O)Nc1cc(-n2c(=O)ccc3cnc4ccc(-c5ccc(NS(C)(=O)=O)cc5)cc4c32)ccc1C [BMX-IN-1] + CS(=O)(=O)CCNCc1ccc(-c2ccc3ncnc(Nc4ccc(OCc5cccc(F)c5)c(Cl)c4)c3c2)o1 [Lapatinib] (partner 2 µM)
How it was run: as §1

Cell Line	relative viability (PAC-1; 0.02 µM)	relative viability (PAC-1; 0.06325 µM)	relative viability (PAC-1; 0.2 µM)	relative viability (PAC-1; 2 µM)	relative viability (Ibrutinib + Alpelisib; first compound 0.005 µM)	relative viability (Ibrutinib + Alpelisib; first compound 0.01581 µM)	relative viability (Ibrutinib + Alpelisib; first compound 0.05 µM)	relative viability (Ibrutinib + Alpelisib; first compound 0.1581 µM)	relative viability (Ibrutinib + Alpelisib; first compound 0.5 µM)	relative viability (BMX-IN-1 + Trametinib; first compound 0.02 µM)	relative viability (BMX-IN-1 + Trametinib; first compound 0.2 µM)	relative viability (BMX-IN-1 + Trametinib; first compound 0.6325 µM)	relative viability (BMX-IN-1 + Trametinib; first compound 2 µM)	relative viability (BMX-IN-1 + Lapatinib; first compound 0.02 µM)	relative viability (BMX-IN-1 + Lapatinib; first compound 0.2 µM)	relative viability (BMX-IN-1 + Lapatinib; first compound 0.6325 µM)	relative viability (BMX-IN-1 + Lapatinib; first compound 2 µM)
NCI-H1437	0.988	1.01	0.96	0.814	0.958	0.937	1.01	0.988	1.03	0.677	0.489	0.605	0.614	0.928	0.867	0.907	0.915
PC-3 [JPC-3]	1.06	1.08	1.05	1.03	1.03	0.946	0.941	1.04	0.517	0.697	0.712	0.738	0.677	0.533	0.466	0.47	0.476
201T	0.959	1.02	1.01	0.981	–	0.97	1.03	1	0.938	0.703	0.733	0.744	0.694	1.03	1.04	1.05	1.05
PC-14	1.03	1.03	0.995	0.988	0.974	0.954	0.909	1.05	0.632	0.814	1.01	0.927	0.793	0.356	0.321	0.338	0.258
RERF-LC-KJ	1.08	1	0.947	0.942	0.526	0.731	0.791	0.638	0.585	0.967	0.897	0.867	0.909	0.876	0.944	0.963	0.918
HCC-15	1.09	1.08	0.969	1.08	0.956	0.867	0.99	0.853	0.851	0.268	0.411	0.388	0.396	0.933	0.955	0.985	0.984
NCI-H1755	1.02	0.958	0.963	0.995	0.939	0.893	1.03	0.981	0.932	0.703	0.81	0.853	0.695	1.2	1.02	1.09	1.02
HOP-62	1.05	1	0.996	1.07	0.638	0.954	1.02	1.2	0.918	0.44	0.379	0.366	0.341	1.05	1.16	0.955	1.04
UMC-11	1	0.969	1	1.01	0.957	1.01	0.958	1.01	0.964	0.831	0.727	0.763	0.738	1.1	1.1	1.28	1.1
BEN	0.987	0.901	0.912	1.04	0.785	0.906	0.944	0.891	1.06	1.15	0.909	0.96	1.03	0.829	0.891	0.729	0.724
NCI-H520	0.964	0.957	0.899	0.99	0.892	0.797	1.04	1.09	0.759	0.892	0.721	0.741	0.733	1.04	0.903	1.05	0.838
SK-LU-1	1	1.02	0.975	0.999	0.751	1.06	1.31	1.06	1.06	0.381	0.522	0.481	0.403	1.3	0.779	0.938	0.771
NCI-H2087	0.872	1.06	0.929	1.04	1.09	–	1.19	–	1.19	0.204	0.174	0.214	0.218	1.02	1.29	1.36	1.06
COR-L 105	0.919	0.901	0.903	0.985	0.899	0.762	0.866	1.11	0.43	0.427	0.444	0.422	0.403	0.327	0.33	0.376	0.371
NCI-H1395	1.02	0.928	0.872	0.911	0.997	0.988	1.35	1.16	0.997	1.19	1.12	0.958	0.966	1.03	0.996	1.12	0.951
EKVX	1.02	0.977	0.934	0.98	–	0.776	0.829	0.799	0.562	0.308	0.39	0.375	0.369	0.208	0.197	0.216	0.189
NCI-H23	0.845	1.03	0.921	1.13	0.514	0.695	0.566	0.76	0.6	0.38	0.423	0.318	0.361	1.04	1.24	1.01	1
NCI-H1792	0.951	0.991	0.996	0.95	0.716	0.698	0.764	0.782	0.65	0.645	0.485	0.44	0.391	0.834	1.04	0.937	0.922
